Counter-ions that a name gives are not always drawn. Like-named read-outs stand apart in the source and are kept apart here.
Key:
Experiment in all cases: In Vitro Anti-Bacterial Activity Test (MIC, agar dilution)
Assay type in all cases: cell-based
Klebsiella oxytoca 1082E = settings: Klebsiella oxytoca 1082E, Muller-Hinton agar, 37° C., 18 hours
How it was run: (§1)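 Each strain, at 10^7 C.F.U./ml, was spotted onto Muller-Hinton agar carrying serial compound dilutions. Growth after an 18-hour incubation at 37° C. defined the minimum inhibitory concentration.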

[1] = system: Staphylococcus aureus 503; settings: Staphylococcus aureus 503, Muller-Hinton agar, 37° C., 18 hours
How it was run: as §1

[2] = system: Streptococcus pyogenes 77A; settings: Streptococcus pyogenes 77A, Muller-Hinton agar, 37° C., 18 hours
How it was run: as §1

Escherichia coli TEM = settings: Muller-Hinton agar, 37° C.
How it was run: (§2)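 Bacterial suspensions of 10^7 C.F.U./ml are inoculated onto Muller-Hinton agar containing graded compound levels. After 18 hours at 37° C., the lowest level showing no growth is recorded as MIC.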

[3] = system: Pseudomonas aeruginosa 1592E; settings: Muller-Hinton agar, 37° C., 18 hours
How it was run: as §1

[4] = system: Enterobacter cloacae 1321E; settings: Enterobacter cloacae 1321E, Muller-Hinton agar, 37° C., 18 hours
How it was run: as §1

[5] = system: Pseudomonas aeruginosa 1771; settings: Pseudomonas aeruginosa 1771, Muller-Hinton agar, 37° C., 18 hours
How it was run: as §1

[6] = system: Staphylococcus aureus 285; settings: Staphylococcus aureus 285, Muller-Hinton agar, 37° C., 18 hours
How it was run: as §1

[7] = system: Pseudomonas aeruginosa 1771M; settings: Muller-Hinton agar, 37° C.
How it was run: as §1

[8] = system: Klebsiella aerogenes 1522E; settings: Klebsiella aerogenes 1522E, Muller-Hinton agar, 37° C., 18 hours
How it was run: as §1

Salmonella typhimurium = settings: Salmonella typhimurium, Muller-Hinton agar, 37° C., 18 hours
How it was run: as §1

Escherichia coli DC2 = system: Escherichia coli DC2
How it was run: as §1

Escherichia coli 1507E = settings: Muller-Hinton agar, 37° C.
How it was run: as §1

[9] = system: Streptococcus pyogenes 308A; settings: Muller-Hinton agar, 37° C., 18 hours
How it was run: as §1

[10] = system: Streptococcus faecium MD8b; settings: Muller-Hinton agar, 37° C., 18 hours
How it was run: as §1

[11] = system: Staphylococcus aureus SG511; settings: Staphylococcus aureus SG511, Muller-Hinton agar, 37° C., 18 hours
How it was run: as §1

Escherichia coli DC0 = settings: Muller-Hinton agar, 37° C., 18 hours
How it was run: as §1

Escherichia coli 078 = system: Escherichia coli 078
How it was run: as §1

Enterobacter cloacae P99 = system: Enterobacter cloacae P99
How it was run: as §2

[12] = system: Pseudomonas aeruginosa 9027; settings: Muller-Hinton agar, 37° C., 18 hours
How it was run: as §1

[13] = Staphylococcus aureus, 285, 18 h, read-out: MIC
[14] = Pseudomonas aeruginosa, 1771M, 18 h
[15] = Klebsiella aerogenes, 1522E, 18 h, read-out: MIC
[16] = Salmonella enterica, read-out: MIC
[17] = Enterococcus faecium, read-out: MIC
[18] = Enterobacter cloacae, P99, 18 h
[19] = Escherichia coli 078, Muller-Hinton agar, 37° C., 18 hours, read-out: MIC

Compound | MIC (Klebsiella oxytoca 1082E; read-out: MIC) [ng/mL] | MIC ([1]; read-out: MIC) [µg/mL] | MIC ([2]; read-out: MIC) [µg/mL] | MIC (Escherichia coli TEM; Escherichia coli, 18 h) [µg/mL] | MIC ([3]; read-out: MIC) [µg/mL] | MIC ([4]; read-out: MIC) [µg/mL] | MIC ([5]; read-out: MIC) [µg/mL] | MIC [6, 13] [µg/mL] | MIC [7, 14] [µg/mL] | MIC [8, 15] [µg/mL] | MIC (Salmonella typhimurium; [16]) [µg/mL] | MIC (Escherichia coli DC2; Escherichia coli, DC2, 18 h) [µg/mL] | MIC (Escherichia coli 1507E; 18 hours, read-out: MIC) [µg/mL] | MIC ([9]; read-out: MIC) [µg/mL] | MIC [10, 17] [µg/mL] | MIC ([11]; read-out: MIC) [µg/mL] | MIC (Escherichia coli DC0; read-out: MIC) [µg/mL] | MIC (Enterobacter cloacae P99; [18]) [ng/mL] | MIC ([12]; read-out: MIC) [µg/mL] | MIC (Escherichia coli 078; [19]) [ng/mL] | further results
1-cyclopropyl-6-fluoro-8-chloro-7-(7-amino-5-azaspiro[2.4]hept-5-yl)-3-(2- nitroacetyl)-1,4-dihydro-4-oxoquinoline hydrochloride [Example 35] | – | – | – | – | – | – | – | – | – | – | – | – | – | – | – | – | – | – | – | – | MIC (Klebsiella oxytoca 1082E): < 2 ng/mL; MIC [1]: 0.013 µg/mL; MIC [2]: 0.098 µg/mL; MIC (Escherichia coli TEM; 18 hours): 0.013 µg/mL; MIC [3]: 0.781 µg/mL; MIC [4]: 0.025 µg/mL; MIC [5]: 0.391 µg/mL; MIC [6]: 0.025 µg/mL; MIC ([7]; 18 hours): 0.098 µg/mL; MIC [8]: 0.013 µg/mL; MIC (Salmonella typhimurium): 0.013 µg/mL; MIC (Escherichia coli DC2; Escherichia coli DC2, Muller-Hinton agar, 37° C., 18 hours): 0.049 µg/mL; MIC (Escherichia coli 1507E; 18 hours): 0.007 µg/mL; MIC [9]: 0.195 µg/mL; MIC [10]: 0.098 µg/mL; MIC [11]: 0.025 µg/mL; MIC (Escherichia coli DC0): 0.098 µg/mL; MIC (Escherichia coli 078; Escherichia coli 078, Muller-Hinton agar, 37° C., 18 hours): 7 ng/mL; MIC (Enterobacter cloacae P99; Enterobacter cloacae P99, Muller-Hinton agar, 37° C., 18 hours): 25 ng/mL; MIC [12]: 0.781 µg/mL
CCOC(=O)C(C(N)=O)C(=O)c1cn(C2CC2)c2c(Cl)c(N3CCC(N)C3)c(F)cc2c1=O (centres unmarked) [Example 52, 1-cyclopropyl-6-fluoro-8-chloro-7-(3-aminopyrrolidin-1-yl)-3-(2-amido-2-ethoxycarbonylacetyl)-1,4-dihydro-4-oxoquinoline hydrochloride] | < 2 | 0.025 | 0.391 | < 0.002 | 0.391 | < 0.002 | 0.391 | 0.025 | 0.098 | 0.013 | 0.013 | 0.025 | 0.004 | 0.195 | 0.391 | 0.025 | 0.049 | 4 | 0.781 | – | MIC (Escherichia coli 078; Escherichia coli, 078, 18 h): 7 ng/mL
CNCC1=CCN(c2c(F)cc3c(=O)c(C(=O)CC#N)cn(C4CC4)c3c2Cl)C1 [Example 43, 1-cyclopropyl-6-fluoro-8-chloro-7-(3-methylaminomethyl-2,5-dihydropyrrol-1-yl)-3-(2-cyanoacetyl)-1,4-dihydro-4-oxoquinoline hydrochloride] | 98 | 0.195 | 25 | 1.56 | 12.5 | 0.049 | 3.12 | 3.12 | 1.56 | 0.781 | 0.195 | 1.56 | 12.5 | 25 | 12.5 | 3.12 | 3.12 | 391 | 6.25 | 6250 | –
CCOC(=O)CC(=O)c1cn(C2CC2)c2c(Cl)c(N3CCC(N)C3)c(F)cc2c1=O (centres unmarked) [Example 25, 1-cyclopropyl-6-fluoro-8-chloro-7-(3-aminopyrrolidin-1-yl)-3-(2-ethoxycarbonylacetyl)-1,4-dihydro-4-oxoquinoline hydrochloride] | < 2 | 0.049 | 0.391 | < 0.002 | 0.195 | < 0.002 | 0.195 | 0.049 | 0.098 | 0.013 | 0.004 | 0.025 | – | 0.781 | 0.391 | 0.098 | 0.098 | 4 | 0.391 | < 2 | MIC (Escherichia coli 1507E; Escherichia coli, 1507E, 18 h): 0.025 µg/mL
